Values joined by “and” are separate entries in the source; they are usually repeats but may differ in a detail not shown here. Identical values can stand only once. Like-named read-outs stand apart in the source and are kept apart here.
Legend:
Assay type in all cases: binding
[1] = biological target: T1, BRD4(1)^WT (Homo sapiens, UniProt O60885); experiment: Protein LCMS labeling assay 1; conditions: for Covalent labeling of purified BRD4(1)^WT detected using LCMS: after 20 h incubation; for Labeled Protein (%) WT 4 h: 50 μM compound, 10 µM protein, 37 °C, mean of three ± s.e.m., ND = not detectable
T1 construct: Characterization of His6-BRD4(1)WT; made in house; host or cells: E. coli BL21 (DE3)
Protocol: Before introducing a Cys mutant into the first bromodomain of BRD4 [BRD4(1)], we wanted to rule out the possibility that the native Cys residues C125 and C136 (Figures 2A and S1), would react with electrophilic fragments. To test this, we incubated two KAc-mimicking methylisoxazole-based reactive fragments (1 and 2, Figure 2C) with purified BRD4(1)^WT.
(§1) The resulting library of 22 fragments was screened for BRD4(1)^L94C binding at a concentration of 50 μM using a protein LCMS assay (referred to as “labeling assay 1”). […] To assess the selectivity of the fragments for the labeling of C94, hits were also screened against BRD4(1)^WT under the same conditions. […] The acrylamide-based fragment, 12, labeled 98% of BRD4(1)^L94C after 4 h. While 95% of the protein was labeled once, 3% of the protein was labeled twice (Figure 5D). […] Fragment 14, designed by appending a β-dimethylaminomethyl acrylamide to the structure of 12, led to 74% of singly labeled BRD4(1)^L94C after 4 h with no labeling of BRD4(1)^WT observed (Table 1 and Figure 5E). […] However, only 9.9% of labeled BRD4(1)^L94C was observed, substantially lower than the 56% labeling observed for the corresponding 3-methyl regioisomer 10 (Table 1). […]
(§2) Assays were performed in 1.5 mL Eppendorf tubes at 37 °C and gently shaken, unless otherwise stated.
(§3) Experiments were performed in a protein LCMS assay buffer, with 10 µM protein, and 50 µM of the desired compound with a final DMSO concentration of 0.5% (Table S16). Time points were taken at 0, 1 and 4 h, unless otherwise stated, where a 20 µL sample of the reaction mix was taken, diluted with 100 µL Milli-Q water, and flash frozen. Samples were thawed immediately prior to LCMS analysis on a Waters Xevo G2-S system (Waters) fitted with a ProSwift™ RP-2H PSDVB Reversed Phase HPLC Column (Thermofisher). Data was analysed and processed using MassLynx. The total ion chromatograms (TIC) were extracted (region containing protein) and the summed scans were deconvoluted (using MaxEnt). Covalent labeling was calculated using intensities of the unlabeled and labeled protein (Equation 1). Figures were made using GraphPad Prism 7.0.
(§4) Table S16. Buffer composition for protein LCMS.
(§5) Buffer Reagent Composition Amount per 1 L
(§6) Protein LCMS Assay Buffer HEPES 25 mM 6.0 g
(§7) Protein Labelling = Intensity of Labelled Peak × 100

[2] = biological target: T2, BRD4(1)^L94C (Homo sapiens, UniProt O60885, L94C); experiment: Protein LCMS labeling assay 1; conditions: for Labeled Protein (%) L94C 1 h / Labeled Protein (%) L94C 4 h: 50 μM compound, 10 µM protein, 37 °C, mean of three ± s.e.m., ND = not detectable
T2 construct: Characterization of His6-BRD4(1)L94C; made in house; host or cells: E. coli BL21 (DE3)
Protocol: as §1, §2, §3, §4, §5, §6, §7

[3] = biological target: T2, BRD4(1)^L94C; experiment: AlphaScreen H4_1–20(KAc)4 peptide displacement
Protocol: Under these conditions, all three fragments displaced the peptide from BRD4(1)^L94C, which is consistent with the fragments binding to BRD4(1)^L94C in the expected location (Table 2). […] The longer the mutant protein and electrophile are incubated together, the more time there is for a covalent interaction to occur. […]
(§8) Dose response AlphaScreen™
(§9) The peptide (Table S17) was supplied at >95% purity by GenScript and was stored as 1 mM stocks in […]
(§10) Table S17. Amino acid sequences of peptides used in AlphaScreen™.
(§11) Peptide Amino Acid Sequence […]
(§12) The assay buffer (Table S18, pH 7.6) was filtered through a 0.22 μm filter before use. The buffer is stored at 4 °C as a 5× solution without bovine serum albumin (BSA), which was added on the day of use. The compounds, proteins, and peptides were dispensed into a ProxiPlate-384 Plus (Perkin Elmer) using a Thermo-Fisher electronic multi-channel pipette. For the incubation steps, the plates were sealed, shaken for 10 seconds at 600 rpm on a plate oscillator, and incubated at room temperature in darkness for 30 min or 3.5 h. Ni2+ chelate acceptor and streptavidin donor beads were prepared as a mixture in a 1:300 dilution (0.007 mg/mL final assay concentration, added to the plates and incubated for a further 30 min at room temperature. Plates were read using a SynergyTM 2 MultiMode Microplate Reader using the inbuilt AlphaScreen™ 384 ProxiPlate function: excitation 680 nm, 0.18 sec; emission […]
(§13) Table S18. Composition of assay buffer used in AlphaScreen™ experiments, adjusted to pH 7.6 using an aqueous NaOH […]
(§14) Reagent Composition Mass (mg) for 50 mL
(§15) 50 mM DMSO stock solutions of the compounds were serially diluted, and dispensed into wells (5 μL).
(§16) The protein-peptide mixes (7 μL) for each combination were prepared following the specified final assay concentration (Table S19), and dispensed into wells. Assay beads (8 μL) were added to attain a final assay volume of 20 μL. Dose response curves were obtained for each compound in triplicate, with serial 1:2 dilutions. Data was processed by fitting a four-parameter equation (Equation 2) to calculate IC50 values using Prism software.
(§17) Table S19. Final assay concentrations of each peptide-protein combination.
(§18) Protein Peptide Protein FAC (nM) Peptide FAC (nM)
(§19) Response = Bottom + Top − Bottom

[4] = biological target: T1, BRD4(1)^WT; experiment: AlphaScreen H4_1–20(KAc)4 peptide displacement
Protocol: as §8, §9, §10, §11, §12, §13, §14, §15, §16, §17, §18, §19

[5] = biological target: T2, BRD4(1)^L94C; experiment: Fluorescent labeling of purified protein (CuAAC with TAMRA-PEG3-azide, in-gel fluorescence); conditions: 50 μM probe, 10 μM protein, 4 h, 37 °C, then CuAAC 1 h
Protocol: When 28, 29, 30, and 42 were incubated with either purified BRD4(1)^L94C or BRD4(1)^WT and subjected to a copper(I)-catalyzed alkyne–azide click reaction (CuAAC) reaction with the fluorescent TAMRA-PEG3-azide dye, all clickable probes labeled the mutant protein and could be visualized using fluorescence imaging of a gel (Figure 6).
Figure 6 Clickable probes 28, 29, 30, and 42 covalently label BRD4(1)^L94C and undergo a subsequent CuAAC reaction with TAMRA-PEG3 azide to fluorescently label the protein, as shown by in-gel fluorescence imaging. Compounds 28, 29, 30, 41, and 42 (50 μM) were incubated with purified BRD4(1)^L94C or BRD4(1)^WT (10 μM) for 4 h at 37 °C, followed by CuAAC reaction with TAMRA-PEG3 azide for 1 h and separation of components by SDS-PAGE. For all compounds other than 30, only labeling of BRD4(1)^L94C was observed. […]
Fluorescent labeling of purified proteins
Assays were performed in 1.5 mL Eppendorf tubes at 37 °C, and gently shaken, unless otherwise stated.
The desired click probe (50 µM) was incubated with protein (10 µM) in protein LCMS buffer for 4 h, after which TAMRA-PEG3-Azide (200 µM), TCEP·HCl (1 mM), TBTA (100 µM), and CuSO4 (1 mM) were added and incubated for a further 1 h at room temperature in the dark. A 25 µL sample of the […]
reaction mix was taken and 8 µL of Lamelli buffer added, and the samples denatured by heating at 95 °C for 10 min. Samples were separated by gel electrophoresis on NuPAGE™ 4–12%, Bis-Tris precast polyacrylamide gels (Thermofisher). Following electrophoresis, gels were stained for 15 min with InstantBlueTM Coomasie® stain (Abcam), destained, and imaged using Bio-rad molecular imager.
Bio-rad Image Lab 6.1 was used to process the data. […]
InstantBlueTM Coomasie® stain (Abcam), destained, and imaged using Bio-rad molecular imager. […]
MEM media. Cells were then harvested and lysed using the previously described protocol above. […]

[6] = IC50 (μM) L94C 1 h, 1 h incubation at RT, mean of three ± s.e.m.
[7] = IC50 (μM) L94C 4 h, 4 h incubation at RT, mean of three ± s.e.m.
[8] = 4 h incubation at RT, mean of three ± s.e.m.

Compound | Labeled Protein (%) WT 4 h [1] | Labeled Protein (%) L94C 1 h [2] [%] | Labeled Protein (%) L94C 4 h ([2]; 4 h) | further results
Cc1cc(CCl)on1 [Compound 1] | – | – | – | Covalent labeling of purified BRD4(1)^WT detected using LCMS [1]: no covalent labeling
Cc1cc(CCl)no1 [Compound 2] | – | – | – | Covalent labeling of purified BRD4(1)^WT detected using LCMS [1]: no covalent labeling
C=CC(=O)c1cc(C)no1 [Compound 4] | 83 ± 1.2% | 100 ± 0.0 | 100 ± 0.0% | –
C=CC(=O)c1cc(C)on1 [Compound 5] | 86 ± 7.4% | 100.0 ± 0.0 | 100.0 ± 0.0% | –
C=CC(=O)c1onc(C)c1-c1ccccc1 [Compound 6] | – | 100 ± 0.0 | 100 ± 0.0% | –
C#CC(=O)c1cc(C)no1 [Compound 8] | 29 ± 0.8% | 44 ± 0.6 | 42 ± 1.4% | –
C#CC(=O)c1cc(C)on1 [Compound 9] | 22 ± 1.4% | 60 ± 0.7 | 58 ± 1.9% | –
C=CC(=O)Nc1cc(C)no1 [Compound 10] | – | 21 ± 1.8 | 56% and 56 ± 0.9% | –
C=CC(=O)Nc1cc(C)on1 [Compound 11] | – | 7.6 ± 0.4 | 9.9% and 9.9 ± 0.4% | –
C=CC(=O)Nc1onc(C)c1-c1ccccc1 [Compound 12] | 3% and 3.0 ± 0.2% | 70 ± 0.6 | 98% and 98 ± 0.2% | IC50 [3, 6]: 5.83 µM and 5.8 µM; IC50 [3, 7]: 1.27 µM and 1.3 µM; BRD4(1)^L94C protein labeled once ([2]; 50 μM, 4 h): 95%; BRD4(1)^L94C protein labeled twice ([2]; 50 μM, 4 h): 3%; IC50 [4, 8]: > 100 µM
Cc1cc(NC(=O)/C=C/CN(C)C)on1 [Compound 13] | – | 16 ± 0.7 | 52% and 52 ± 0.9% | –
Cc1noc(NC(=O)/C=C/CN(C)C)c1-c1ccccc1 [Compound 14] | no labeling | 27 ± 2.2 | 74% and 74 ± 2.6% | IC50 [3, 6]: 8.69 µM and 8.7 µM; IC50 [3, 7]: 4.45 µM and 4.4 µM; IC50 [4, 8]: > 100 µM
C#CC(=O)Nc1cc(C)no1 [Compound 19] | – | 3.4 ± 0.2 | 15 ± 1.3% | –
CC#CC(=O)Nc1cc(C)no1 [Compound 20] | – | – | 7.8 ± 0.2% | –
Cc1cc(NC(=O)CCl)on1 [Compound 21] | – | 10 ± 0.7 | 32 ± 0.9% | –
Cc1noc(NC(=O)CCl)c1-c1ccccc1 [Compound 22] | – | 5.9 ± 0.3 | 22 ± 0.4% | –
C#Cc1ccc(-c2c(C)noc2NC(=O)/C=C/CN(C)C)cc1 [Compound 28] | – | 59 ± 1.9 | – | Labeling of purified BRD4(1)^L94C, in-gel fluorescence [5]: high levels
C#CCOc1ccc(-c2c(C)noc2NC(=O)/C=C/CN(C)C)cc1 [Compound 29] | – | 49 ± 2.0 | – | Labeling of purified BRD4(1)^L94C, in-gel fluorescence [5]: high levels
Cc1noc(C)c1-c1cc(O)cc(C(O)c2cccnc2)c1 (centres unmarked) [OXFBD04 (3), reference compound] | – | – | – | IC50 ([3]; IC50, prevention of H4_1–20(KAc)4 peptide binding to BRD4(1)^L94C, equals the 4 h value of Figure S13): 0.08 ± 0.009 µM; IC50 ([3]; read-out: IC50 (μM) L94C 1 h, 1 h incubation at RT, mean of three ± s.e.m.): 0.059 ± 0.11 µM; IC50 ([4]; equals the 4 h value of Figure S14): 0.183 ± 0.025 µM
